According to US20230200390A1, “SELECTIVE HERBICIDES BASED ON SUBSTITUTED ISOXAZOLIN CARBOXAMIDES AND MEFENPYR-DIETHYL” (BAYER AKTIENGESELLSCHAFT, priority 2020, published 2023):

Tests used:
Format in all cases: in vivo
[1] = system: spring barley, HORVS Montoya; experiment: Tank-mix; post-emergence: crop damage by herbicide with/without safener mefenpyr-diethyl
Experimental: (§1) Seeds of crops (spring wheat, TRZAS; spring barley, HORVS; maize, ZEAMA) were placed in sandy loam soil in peat pots, covered with soil and cultivated in a greenhouse under good growth conditions. Two to three weeks after sowing, the test plants were treated at the 1 to 3-leaf stage. The herbicide/safener active compound combinations according to the invention, formulated as wettable powders or emulsion concentrates, and, in parallel tests, the correspondingly formulated individual active compounds were sprayed onto the green parts of the plants in various dosages using an amount of water of 300 l/ha (converted).
(§2) The pots were returned under good growing conditions in a glasshouse and a visual assessment of herbicidal effects was made at intervals from 1 to 3 weeks after herbicide application (DAT=days after treatment). Assessment was on a percentage basis in comparison with untreated control plants (0%=no injury, 100%=complete kill).

[2] = system: spring barley, HORVS Montoya; experiment: Seed treatment with safener; post-emergence herbicide, crop damage; settings: for HER effect + SAF / Reduction [%] / Reduction [Difference]: mefenpyr-diethyl 0.5 g a.i./kg seed
Excerpt: (§3) For safener seed treatment trials, sufficient seed amounts of the respective crops (spring wheat (TRZAS); spring barley (HORVS)) were weighed into screw cap glass bottles with a minimum volume trice of the seeds.
(§4) As a first step, specified safeners formulated as wettable powder (WP) or wettable granules (WG) were weighed out for the required dosages (g a.i./kg seed), corresponding to the seed amounts. The safener amounts were mixed with a coloured slurry blind formulation type, prediluted with milk at 3.5% fat rate (25 mgs slurry formulation plus 2 ml milk per 10 grams of seed). A tube roller was used for coating. The solutions were gradually pipetted each on the rotating seeds followed by coating for min. 3 hours until all liquid had been soaked up by the seeds. Thereafter, the coated seeds were put flat on open trays for drying over night at room temperature.
(§5) Treated seeds were then placed into pots (7 cm diameter) on the surface of sandy loam, pressed down, flat covered with additional soil and finally covered with sandy soil, also pressed down, watered, and kept under good growth conditions in a greenhouse, until the plants had reached 2-leaf-stage (BBCH 12).
(§6) At that stage, post-emergence application of the specified herbicides was done on:
(§7) a) pot sets containing plants with safener-coated seeds as described above,
(§8) b) as a reference, pot sets of plants without seed treatment.
(§9) The herbicides were formulated as wettable powder (WP). Equivalent to the spray area, compound amounts were weighed out and diluted related to the water application rate (300 l/ha) to an aqueous suspension plus additive (1 l/ha MERO). Dosage related equivalents were conventionally sprayed on trays with the potted plants.
(§10) After application, the test plants were kept under good growth conditions in a greenhouse.
(§11) Assessment timings were 10 and 21 days after treatment (DAT) with the herbicide, by visual scoring of the crop damage in % (comparison of untreated with treated plants, either sprayed only with herbicide or with herbicide on plants with treated seeds).

[3] = system: spring wheat, TRZAS Triso; experiment: as above; settings: for HER effect + SAF [%] (crop damage) / Reduction [%] / Reduction [Difference]: mefenpyr-diethyl 0.5 g a.i./kg seed; for HER effect [%] (crop damage, herbicide without safener): no safener
Excerpt: as §3, §4, §5, §6, §7, §8, §9, §10, §11

[4] = system: spring wheat, TRZAS Triso; experiment: Tank-mix; post-emergence: crop damage by herbicide with/without safener mefenpyr-diethyl
Experimental: as §1, §2

[5] = HER 8 g a.i./ha + mefenpyr-diethyl 100 g a.i./ha, 21 DAT
[6] = herbicide alone 8 g a.i./ha, 21 DAT
[7] = HER 8 g a.i./ha post-emergence, 21 DAT
[8] = herbicide alone 8 g a.i./ha post-emergence, 21 DAT
[9] = HER 32 g a.i./ha post-emergence, 21 DAT
[10] = herbicide alone 32 g a.i./ha post-emergence, 21 DAT
[11] = HER 8 g a.i./ha + mefenpyr-diethyl 50 g a.i./ha, 10 DAT
[12] = HER 32 g a.i./ha + mefenpyr-diethyl 100 g a.i./ha, 10 DAT
[13] = herbicide alone 8 g a.i./ha, 10 DAT
[14] = herbicide alone 32 g a.i./ha, 10 DAT
[15] = HER 32 g a.i./ha post-emergence, 10 DAT
[16] = herbicide alone 32 g a.i./ha post-emergence, 10 DAT
[17] = HER 4 g a.i./ha + mefenpyr-diethyl 50 g a.i./ha, 10 DAT
[18] = HER 16 g a.i./ha + mefenpyr-diethyl 100 g a.i./ha, 10 DAT
[19] = herbicide alone 4 g a.i./ha, 10 DAT
[20] = herbicide alone 16 g a.i./ha, 10 DAT
[21] = HER 2 g a.i./ha + mefenpyr-diethyl 50 g a.i./ha, 10 DAT
[22] = HER 2 g a.i./ha post-emergence, 21 DAT
[23] = HER 2 g a.i./ha + mefenpyr-diethyl 50 g a.i./ha, 21 DAT
[24] = HER 8 g a.i./ha + mefenpyr-diethyl 50 g a.i./ha, 21 DAT
[25] = herbicide alone 2 g a.i./ha, 21 DAT
[26] = HER 2 g a.i./ha + mefenpyr-diethyl 100 g a.i./ha, 21 DAT

## C=CC1(C(=O)NC2CC=C(C(=O)OC)C2)CC(c2cc(F)cc(F)c2)=NO1 (mixture of isomers) [Example 1.60]
[1]; [5]
  HER effect + SAF: 20%
  Reduction [%]: 75%
  Reduction [Difference]: 60
[1]; [6]
  HER effect: 80%
[2]; [7]
  HER effect + SAF: 10%
  Reduction [%]: 88%
  Reduction [Difference]: 70
[2]; [8]
  HER effect: 80%
[3]; 21 DAT, HER dose 8 g a.i./ha
  HER effect + SAF [%] (crop damage): 0%
  Reduction [%]: 100%
  Reduction [Difference]: 93
  HER effect [%] (crop damage, herbicide without safener): 93%
[3]; 21 DAT, HER dose 32 g a.i./ha
  HER effect + SAF [%] (crop damage): 10%
  Reduction [%]: 89%
  Reduction [Difference]: 85
  HER effect [%] (crop damage, herbicide without safener): 95%

## COC(=O)C1C=CC(NC(=O)C2(C)CC(c3cc(Cl)cc(C#N)c3)=NO2)C1 (mixture of isomers) [Example 1.23]
[2]; [7]
  HER effect + SAF: 0%
  Reduction [%]: 100%
  Reduction [Difference]: 20
[2]; [9]
  HER effect + SAF: 10%
  Reduction [%]: 67%
  Reduction [Difference]: 20
[2]; [8]
  HER effect: 20%
[2]; [10]
  HER effect: 30%
[3]; 21 DAT, HER dose 8 g a.i./ha
  HER effect + SAF [%] (crop damage): 0%
  Reduction [%]: 100%
  Reduction [Difference]: 20
  HER effect [%] (crop damage, herbicide without safener): 20%

## COC(=O)C1C=CC(NC(=O)C2(C(F)(F)F)CC(c3cccc(F)c3)=NO2)C1 (stereo not drawn) [Example 1.18]
[1]; [11]
  HER effect + SAF: 0%
  Reduction [%]: 100%
  Reduction [Difference]: 20
[1]; [12]
  HER effect + SAF: 10%
  Reduction [%]: 88%
  Reduction [Difference]: 70
[1]; [13]
  HER effect: 20%
[1]; [14]
  HER effect: 80%
[2]; [15]
  HER effect + SAF: 20%
  Reduction [%]: 75%
  Reduction [Difference]: 60
[2]; [16]
  HER effect: 80%

## C=CCOC(=O)C1CC(NC(=O)C2(C=C)CC(c3cc(C)cc(F)c3)=NO2)CO1 (mixture of isomers) [Example 1.85]
[1]; [11]
  HER effect + SAF: 0%
  Reduction [%]: 100%
  Reduction [Difference]: 20
[1]; [12]
  HER effect + SAF: 20%
  Reduction [%]: 75%
  Reduction [Difference]: 60
[1]; [13]
  HER effect: 20%
[1]; [14]
  HER effect: 80%
[2]; [15]
  HER effect + SAF: 30%
  Reduction [%]: 63%
  Reduction [Difference]: 50
[2]; [16]
  HER effect: 80%

## CCOC(=O)C1CC(NC(=O)C2(C)CC(c3cccc(F)c3)=NO2)CO1 (mixture of isomers) [Example 1.67]
[1]; [17]
  HER effect + SAF: 0%
  Reduction [%]: 100%
  Reduction [Difference]: 30
[1]; [18]
  HER effect + SAF: 0%
  Reduction [%]: 100%
  Reduction [Difference]: 60
[1]; [19]
  HER effect: 30%
[1]; [20]
  HER effect: 60%
[4]; [17]
  HER effect + SAF: 10%
  Reduction [%]: 80%
  Reduction [Difference]: 40
[4]; [18]
  HER effect + SAF: 20%
  Reduction [%]: 71%
  Reduction [Difference]: 50
[4]; [19]
  HER effect: 50%
[4]; [20]
  HER effect: 70%
[3]; 10 DAT, HER dose 4 g a.i./ha
  HER effect + SAF [%] (crop damage): 10%
  Reduction [%]: 80%
  Reduction [Difference]: 40
  HER effect [%] (crop damage, herbicide without safener): 50%
[3]; 10 DAT, HER dose 16 g a.i./ha
  HER effect + SAF [%] (crop damage): 20%
  Reduction [%]: 71%
  Reduction [Difference]: 50
  HER effect [%] (crop damage, herbicide without safener): 70%

## CSCCOC(=O)C1C=CC(NC(=O)C2(C(F)(F)F)CC(c3cc(F)cc(F)c3)=NO2)C1 (stereo not drawn) [Example 1.7]
[4]; [21]
  HER effect + SAF: 0%
  Reduction [%]: 100%
  Reduction [Difference]: 50
[4]; [11]
  HER effect + SAF: 70%
  Reduction [%]: 25%
  Reduction [Difference]: 23
[4]; herbicide alone 2 g a.i./ha, 10 DAT
  HER effect: 50%
[4]; [13]
  HER effect: 93%
[2]; [22]
  HER effect + SAF: 40%
  Reduction [%]: 43%
  Reduction [Difference]: 30
[2]; [9]
  HER effect + SAF: 50%
  Reduction [%]: 47%
  Reduction [Difference]: 45
[2]; herbicide alone 2 g a.i./ha post-emergence, 21 DAT
  HER effect: 70%
[2]; [10]
  HER effect: 95%
[3]; 10 DAT, HER dose 2 g a.i./ha
  HER effect + SAF [%] (crop damage): 0%
  Reduction [%]: 100%
  Reduction [Difference]: 50
  HER effect [%] (crop damage, herbicide without safener): 50%
[3]; 10 DAT, HER dose 8 g a.i./ha
  HER effect + SAF [%] (crop damage): 40%
  Reduction [%]: 57%
  Reduction [Difference]: 53
  HER effect [%] (crop damage, herbicide without safener): 93%

## C=CC1(C(=O)NC2C=CC(C(=O)O)C2)CC(c2cc(F)cc(F)c2)=NO1 (stereo not drawn) [Example 1.58]
[4]; [23]
  HER effect + SAF: 10%
  Reduction [%]: 88%
  Reduction [Difference]: 75
[4]; [24]
  HER effect + SAF: 40%
  Reduction [%]: 57%
  Reduction [Difference]: 53
[4]; [25]
  HER effect: 85%
[4]; [6]
  HER effect: 93%
[2]; [7]
  HER effect + SAF: 0%
  Reduction [%]: 100%
  Reduction [Difference]: 95
[2]; [9]
  HER effect + SAF: 40%
  Reduction [%]: 58%
  Reduction [Difference]: 55
[2]; [8]
  HER effect: 95%
[2]; [10]
  HER effect: 95%
[3]; 21 DAT, HER dose 2 g a.i./ha
  HER effect + SAF [%] (crop damage): 0%
  Reduction [%]: 100%
  Reduction [Difference]: 85
  HER effect [%] (crop damage, herbicide without safener): 85%
[3]; 21 DAT, HER dose 8 g a.i./ha
  HER effect + SAF [%] (crop damage): 0%
  Reduction [%]: 100%
  Reduction [Difference]: 93
  HER effect [%] (crop damage, herbicide without safener): 93%
[3]; 21 DAT, HER dose 32 g a.i./ha
  HER effect + SAF [%] (crop damage): 10%
  Reduction [%]: 89%
  Reduction [Difference]: 83
  HER effect [%] (crop damage, herbicide without safener): 93%

## C=CC1(C(=O)NC2C=CC(C(=O)OC)C2)CC(c2cc(F)cc(F)c2)=NO1 (stereo not drawn) [Example 1.26]
[1]; [26]
  HER effect + SAF: 0%
  Reduction [%]: 100%
  Reduction [Difference]: 60
[1]; [25]
  HER effect: 60%
[4]; [23]
  HER effect + SAF: 50%
  Reduction [%]: 44%
  Reduction [Difference]: 40
[4]; [25]
  HER effect: 90%
[3]; 21 DAT, HER dose 2 g a.i./ha
  HER effect + SAF [%] (crop damage): 30%
  Reduction [%]: 67%
  Reduction [Difference]: 60
  HER effect [%] (crop damage, herbicide without safener): 90%
[3]; 21 DAT, HER dose 8 g a.i./ha
  HER effect + SAF [%] (crop damage): 70%
  Reduction [%]: 25%
  Reduction [Difference]: 23
  HER effect [%] (crop damage, herbicide without safener): 93%
